Experimental data published in the supplement of paper PMC10307832.

Assays:
Experiment in all cases: relative viability (nuclei count vs DMSO), 5 days (fraction); higher = more cells survive
[1] = tested on: NCI-H2228
In short: (§1)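 The day after seeding in 1536-well plates, lung cancer cell lines were treated by pin tool with a single drug, or with a fixed anchor-drug dose together with five library-drug doses (not always all listed) in √10 steps. After 5 days, a combined fix-and-stain solution (final 0.05% Triton X-100, 1% formaldehyde, 1 ug/ml Hoechst) was added. Nuclei counted on 4× images gave relative viability as treated counts over vehicle counts, reported as the median of duplicate plates.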

[2] = tested on: NCI-H1651
In short: as §1

[3] = tested on: NCI-H1395
In short: as §1

[4] = tested on: UMC-11
In short: as §1

[5] = tested on: HCC-366
In short: as §1

[6] = tested on: NCI-H2405
In short: as §1

[7] = tested on: ABC-1
In short: as §1

[8] = tested on: LC-2-ad
In short: as §1

[9] = tested on: LOU-NH91
In short: as §1

[10] = tested on: NCI-H460
In short: as §1

[11] = tested on: HCC-78
In short: as §1

[12] = tested on: NCI-H1944
In short: as §1

[13] = tested on: PC-3 [JPC-3]
In short: as §1

[14] = tested on: NCI-H1793
In short: as §1

[15] = tested on: RERF-LC-KJ
In short: as §1

[16] = tested on: LU99A
In short: as §1

[17] = tested on: NCI-H3122
In short: as §1

[18] = tested on: NCI-H2087
In short: as §1

[19] = tested on: NCI-H2170
In short: as §1

[20] = tested on: CAL-12T
In short: as §1

[21] = tested on: NCI-H1755
In short: as §1

[22] = tested on: ChaGo-K-1
In short: as §1

O=c1cc(-c2cccc3c2Sc2ccccc2S3)oc(N2CCOCC2)c1 + CS(=O)(=O)N1CCN(Cc2cc3nc(-c4cccc5[nH]ncc45)nc(N4CCOCC4)c3s2)CC1 [Pictilisib] (partner 1 µM)
relative viability ([1]; first compound 0.08 µM): 0.434
relative viability ([1]; first compound 0.253 µM): 0.424
relative viability ([1]; first compound 0.8 µM): 0.296
relative viability ([1]; first compound 2.53 µM): 0.484
relative viability ([1]; first compound 8 µM): 0.378
relative viability ([2]; first compound 0.08 µM): 0.512
relative viability ([2]; first compound 0.253 µM): 0.857
relative viability ([2]; first compound 0.8 µM): 0.546
relative viability ([2]; first compound 2.53 µM): 0.59
relative viability ([2]; first compound 8 µM): 0.509
relative viability ([3]; first compound 0.08 µM): 0.634
relative viability ([3]; first compound 0.253 µM): 0.602
relative viability ([3]; first compound 0.8 µM): 0.534
relative viability ([3]; first compound 2.53 µM): 0.579
relative viability ([3]; first compound 8 µM): 1.05
relative viability ([4]; first compound 0.08 µM): 0.815
relative viability ([4]; first compound 0.253 µM): 1.09
relative viability ([4]; first compound 0.8 µM): 0.992
relative viability ([4]; first compound 2.53 µM): 0.752
relative viability ([4]; first compound 8 µM): 1
relative viability ([5]; first compound 0.08 µM): 0.138
relative viability ([5]; first compound 0.253 µM): 0.129
relative viability ([5]; first compound 0.8 µM): 0.114
relative viability ([5]; first compound 2.53 µM): 0.122
relative viability ([5]; first compound 8 µM): 0.158
relative viability ([6]; first compound 0.08 µM): 0.454
relative viability ([6]; first compound 0.253 µM): 0.386
relative viability ([6]; first compound 0.8 µM): 0.333
relative viability ([6]; first compound 2.53 µM): 0.491
relative viability ([6]; first compound 8 µM): 0.492
relative viability ([7]; first compound 0.08 µM): 0.62
relative viability ([7]; first compound 0.253 µM): 0.739
relative viability ([7]; first compound 0.8 µM): 0.607
relative viability ([7]; first compound 2.53 µM): 0.666
relative viability ([7]; first compound 8 µM): 0.71
relative viability ([8]; first compound 0.08 µM): 0.472
relative viability ([8]; first compound 0.253 µM): 0.545
relative viability ([8]; first compound 0.8 µM): 0.465
relative viability ([8]; first compound 2.53 µM): 0.432
relative viability ([8]; first compound 8 µM): 0.425
relative viability ([9]; first compound 0.08 µM): 0.519
relative viability ([9]; first compound 0.253 µM): 0.542
relative viability ([9]; first compound 0.8 µM): 0.438
relative viability ([9]; first compound 2.53 µM): 0.504
relative viability ([9]; first compound 8 µM): 0.531
relative viability ([10]; first compound 0.08 µM): 0.289
relative viability ([10]; first compound 0.253 µM): 0.452
relative viability ([10]; first compound 0.8 µM): 0.321
relative viability ([10]; first compound 2.53 µM): 0.384
relative viability ([10]; first compound 8 µM): 0.545
relative viability ([11]; first compound 0.08 µM): 0.182
relative viability ([11]; first compound 0.253 µM): 0.199
relative viability ([11]; first compound 0.8 µM): 0.207
relative viability ([11]; first compound 2.53 µM): 0.196
relative viability ([11]; first compound 8 µM): 0.255
relative viability ([12]; first compound 0.08 µM): 0.324
relative viability ([12]; first compound 0.253 µM): 0.352
relative viability ([12]; first compound 0.8 µM): 0.29
relative viability ([12]; first compound 8 µM): 0.346
relative viability ([13]; first compound 0.08 µM): 0.694
relative viability ([13]; first compound 0.253 µM): 0.761
relative viability ([13]; first compound 0.8 µM): 0.644
relative viability ([13]; first compound 2.53 µM): 0.662
relative viability ([13]; first compound 8 µM): 0.863
relative viability ([14]; first compound 0.08 µM): 0.185
relative viability ([14]; first compound 0.253 µM): 0.301
relative viability ([14]; first compound 0.8 µM): 0.303
relative viability ([14]; first compound 2.53 µM): 0.303
relative viability ([14]; first compound 8 µM): 0.334
relative viability ([15]; first compound 0.08 µM): 0.43
relative viability ([15]; first compound 0.253 µM): 0.608
relative viability ([15]; first compound 0.8 µM): 0.622
relative viability ([15]; first compound 2.53 µM): 0.571
relative viability ([15]; first compound 8 µM): 0.521
relative viability ([16]; first compound 0.08 µM): 0.294
relative viability ([16]; first compound 0.253 µM): 0.341
relative viability ([16]; first compound 0.8 µM): 0.378
relative viability ([16]; first compound 2.53 µM): 0.332
relative viability ([16]; first compound 8 µM): 0.418
relative viability ([17]; first compound 0.08 µM): 0.481
relative viability ([17]; first compound 0.253 µM): 0.755
relative viability ([17]; first compound 0.8 µM): 0.452
relative viability ([17]; first compound 2.53 µM): 0.595
relative viability ([17]; first compound 8 µM): 0.568
relative viability ([18]; first compound 0.08 µM): 0.954
relative viability ([18]; first compound 0.253 µM): 1.15
relative viability ([18]; first compound 0.8 µM): 0.931
relative viability ([18]; first compound 2.53 µM): 0.87
relative viability ([18]; first compound 8 µM): 0.973
relative viability ([19]; first compound 0.08 µM): 0.31
relative viability ([19]; first compound 0.253 µM): 0.342
relative viability ([19]; first compound 0.8 µM): 0.312
relative viability ([19]; first compound 2.53 µM): 0.287
relative viability ([19]; first compound 8 µM): 0.275
relative viability ([20]; first compound 0.08 µM): 0.31
relative viability ([20]; first compound 0.253 µM): 0.482
relative viability ([20]; first compound 0.8 µM): 0.418
relative viability ([20]; first compound 2.53 µM): 0.32
relative viability ([20]; first compound 8 µM): 0.397
relative viability ([21]; first compound 0.08 µM): 0.369
relative viability ([21]; first compound 0.253 µM): 0.489
relative viability ([21]; first compound 0.8 µM): 0.481
relative viability ([21]; first compound 2.53 µM): 0.431
relative viability ([21]; first compound 8 µM): 0.444
relative viability ([22]; first compound 0.08 µM): 0.649
relative viability ([22]; first compound 0.253 µM): 0.624
relative viability ([22]; first compound 0.8 µM): 0.777
relative viability ([22]; first compound 8 µM): 1.12

COc1nc(C)cnc1NS(=O)(=O)c1cccnc1-c1ccc(-c2nnco2)cc1 [Zibotentan] + Cc1nc(Nc2ncc(C(=O)Nc3c(C)cccc3Cl)s2)cc(N2CCN(CCO)CC2)n1 [Dasatinib] (partner 0.075 µM)
relative viability ([1]; first compound 0.08 µM): 0.554
relative viability ([1]; first compound 0.253 µM): 0.509
relative viability ([1]; first compound 0.8 µM): 0.495
relative viability ([1]; first compound 2.53 µM): 0.608
relative viability ([2]; first compound 0.08 µM): 0.462
relative viability ([2]; first compound 0.253 µM): 0.318
relative viability ([2]; first compound 0.8 µM): 0.445
relative viability ([2]; first compound 2.53 µM): 0.451
relative viability ([3]; first compound 0.08 µM): 0.409
relative viability ([3]; first compound 0.253 µM): 0.403
relative viability ([3]; first compound 0.8 µM): 0.409
relative viability ([3]; first compound 2.53 µM): 0.407
relative viability ([4]; first compound 0.08 µM): 0.394
relative viability ([4]; first compound 0.253 µM): 0.436
relative viability ([4]; first compound 0.8 µM): 0.475
relative viability ([4]; first compound 2.53 µM): 0.469
relative viability ([5]; first compound 0.08 µM): 0.73
relative viability ([5]; first compound 0.253 µM): 0.584
relative viability ([5]; first compound 0.8 µM): 0.359
relative viability ([5]; first compound 2.53 µM): 0.652
relative viability ([6]; first compound 0.08 µM): 0.238
relative viability ([6]; first compound 0.253 µM): 0.193
relative viability ([6]; first compound 0.8 µM): 0.218
relative viability ([6]; first compound 2.53 µM): 0.212
relative viability ([7]; first compound 0.08 µM): 0.568
relative viability ([7]; first compound 0.253 µM): 0.572
relative viability ([7]; first compound 0.8 µM): 0.548
relative viability ([7]; first compound 2.53 µM): 0.556
relative viability ([8]; first compound 0.08 µM): 0.688
relative viability ([8]; first compound 0.8 µM): 0.625
relative viability ([8]; first compound 2.53 µM): 0.511
relative viability ([9]; first compound 0.08 µM): 0.577
relative viability ([9]; first compound 0.253 µM): 0.485
relative viability ([9]; first compound 0.8 µM): 0.539
relative viability ([9]; first compound 2.53 µM): 0.577
relative viability ([10]; first compound 0.08 µM): 0.559
relative viability ([10]; first compound 0.253 µM): 0.391
relative viability ([10]; first compound 0.8 µM): 0.504
relative viability ([10]; first compound 2.53 µM): 0.602
relative viability ([11]; first compound 0.08 µM): 0.513
relative viability ([11]; first compound 0.253 µM): 0.313
relative viability ([11]; first compound 0.8 µM): 0.391
relative viability ([11]; first compound 2.53 µM): 0.309
relative viability ([12]; first compound 0.08 µM): 0.193
relative viability ([12]; first compound 0.253 µM): 0.211
relative viability ([12]; first compound 0.8 µM): 0.221
relative viability ([12]; first compound 2.53 µM): 0.224
relative viability ([13]; first compound 0.08 µM): 0.989
relative viability ([13]; first compound 0.253 µM): 1.02
relative viability ([13]; first compound 0.8 µM): 1.01
relative viability ([13]; first compound 2.53 µM): 1.12
relative viability ([14]; first compound 0.08 µM): 0.345
relative viability ([14]; first compound 0.253 µM): 0.363
relative viability ([14]; first compound 0.8 µM): 0.406
relative viability ([14]; first compound 2.53 µM): 0.379
relative viability ([15]; first compound 0.08 µM): 0.863
relative viability ([15]; first compound 0.8 µM): 0.671
relative viability ([15]; first compound 2.53 µM): 0.749
relative viability ([16]; first compound 0.08 µM): 0.712
relative viability ([16]; first compound 0.253 µM): 0.694
relative viability ([16]; first compound 0.8 µM): 0.596
relative viability ([16]; first compound 2.53 µM): 0.487
relative viability ([17]; first compound 0.08 µM): 0.807
relative viability ([17]; first compound 0.253 µM): 0.817
relative viability ([17]; first compound 0.8 µM): 0.701
relative viability ([17]; first compound 2.53 µM): 0.751
relative viability ([18]; first compound 0.08 µM): 0.851
relative viability ([18]; first compound 0.253 µM): 0.573
relative viability ([18]; first compound 0.8 µM): 0.923
relative viability ([18]; first compound 2.53 µM): 0.814
relative viability ([19]; first compound 0.08 µM): 0.59
relative viability ([19]; first compound 0.253 µM): 0.612
relative viability ([19]; first compound 0.8 µM): 0.52
relative viability ([19]; first compound 2.53 µM): 0.469
relative viability ([20]; first compound 0.08 µM): 0.484
relative viability ([20]; first compound 0.253 µM): 0.473
relative viability ([20]; first compound 0.8 µM): 0.34
relative viability ([20]; first compound 2.53 µM): 0.479
relative viability ([21]; first compound 0.08 µM): 0.433
relative viability ([21]; first compound 0.253 µM): 0.413
relative viability ([21]; first compound 0.8 µM): 0.4
relative viability ([21]; first compound 2.53 µM): 0.473
relative viability ([22]; first compound 0.08 µM): 0.604
relative viability ([22]; first compound 0.253 µM): 0.646
relative viability ([22]; first compound 0.8 µM): 0.498
relative viability ([22]; first compound 2.53 µM): 0.626
